Measurements taken from patent publication US10174016B2 (BAYER AKTIENGESELLSCHAFT, priority 2014, dated 2019).
Like-named read-outs stand apart in the source and are kept apart here.

Legend:
human P2X2/3 receptor = human P2X2/3 receptor (Homo sapiens (Human), UniProt P56373+Q9UBL9); experiment: Intracellular calcium measurement (FLIPR, Fluo-4) of antagonist activity at human P2X2/3 receptors; format: cell-based
Summary of the method: (§1)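 Antagonism quantified from peak calcium fluorescence (Fluo-4, FLIPR, 90 sec read) evoked by EC80 α,β-Me-ATP, after a 30 min, 37° C. compound pretreatment in 1% DMSO. Human P2X3- or P2X2/3-expressing cells used; triplicate means fitted for IC50, percent maximal inhibition and Hill coefficient.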

human P2X3 receptor = human P2X3 receptor (Homo sapiens (Human), UniProt P56373); experiment: Intracellular calcium measurement (FLIPR, Fluo-4) of antagonist activity at human P2X3 receptors; format: cell-based; conditions: read-out: hP2X3 IC50
Summary of the method: as §1

[1] = human P2X2/3, FLIPR calcium assay, agonist α,β-Me-ATP, read-out: hP2X2/3 IC50
[2] = human P2X3, FLIPR calcium assay, agonist α,β-Me-ATP

Chain of human P2X3 receptor (P56373 whole entry): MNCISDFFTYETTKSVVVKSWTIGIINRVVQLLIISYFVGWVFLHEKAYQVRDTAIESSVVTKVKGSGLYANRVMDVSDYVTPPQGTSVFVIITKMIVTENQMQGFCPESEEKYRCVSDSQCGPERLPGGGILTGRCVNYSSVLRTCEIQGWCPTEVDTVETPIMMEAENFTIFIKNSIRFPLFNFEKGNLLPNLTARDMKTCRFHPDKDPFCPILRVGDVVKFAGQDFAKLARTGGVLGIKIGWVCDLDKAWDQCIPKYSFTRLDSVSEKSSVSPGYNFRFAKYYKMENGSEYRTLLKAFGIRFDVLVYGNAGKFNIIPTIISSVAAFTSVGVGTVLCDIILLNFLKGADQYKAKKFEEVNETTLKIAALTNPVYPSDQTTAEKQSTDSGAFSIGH
Chain of human P2X2/3 receptor (P56373 whole entry): as above
Chain of human P2X2/3 receptor (Q9UBL9 whole entry): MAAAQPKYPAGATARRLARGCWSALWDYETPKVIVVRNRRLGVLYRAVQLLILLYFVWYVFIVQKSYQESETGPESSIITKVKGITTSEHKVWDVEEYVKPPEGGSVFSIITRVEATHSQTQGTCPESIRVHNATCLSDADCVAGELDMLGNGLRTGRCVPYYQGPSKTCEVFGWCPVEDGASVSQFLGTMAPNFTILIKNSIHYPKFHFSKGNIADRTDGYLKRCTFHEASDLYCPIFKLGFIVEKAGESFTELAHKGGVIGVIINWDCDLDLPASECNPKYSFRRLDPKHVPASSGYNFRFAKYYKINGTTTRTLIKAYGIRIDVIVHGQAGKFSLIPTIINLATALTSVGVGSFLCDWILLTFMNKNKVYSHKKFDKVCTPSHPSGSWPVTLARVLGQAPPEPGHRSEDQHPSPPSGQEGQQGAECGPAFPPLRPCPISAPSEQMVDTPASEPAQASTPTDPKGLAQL

Row | IC50 (human P2X2/3 receptor; [1]) [nM] | IC50 (human P2X3 receptor; [2]) [nM] | SMILES | IC50 (human P2X3 receptor) [nM] | IC50 (human P2X2/3 receptor; hP2X2/3 IC50 (nM)) [nM]
1 | 377 | 51 | Cc1cnc(CNC(=O)c2cc(Oc3ccnc(C)c3)cc(-c3ncc(C)s3)c2)cn1 [Example 104, N-[(5-Methylpyrazin-2-yl)methyl]-3-[(2-methylpyridin-4-yl)oxy]-5-(5-methyl-1,3-thiazol-2-yl)benzamide] |  | 
2 | 41 | 16 | Cc1cc(Oc2cc(C(=O)N[C@H](C)c3cnc(C)nc3)cc(-c3ncc(C)s3)c2)ccn1 [Example 106, 3-[(2-methylpyridin-4-yl)oxy]-N-[(1R)-1-(2-methylpyrimidin-5-yl)ethyl]-5-(5-methyl-1,3-thiazol-2-yl)benzamide] |  | 
3 | 17 | 9 | Cc1ccc([C@@H](C)NC(=O)c2cc(Oc3ccnc(C)c3)cc(-c3ncc(C)s3)c2)cn1 [Example 107, N-[(1R)-1-(6-methylpyridin-3-yl)ethyl]-3-[(2-methylpyridin-4-yl)oxy]-5-(5-methyl-1,3-thiazol-2-yl)benzamide] |  | 
4 | 83 | 11 | Cc1ccc(Oc2cc(C(=O)N[C@H](C)c3cnc(C(F)(F)F)nc3)cc(-c3ncc(C)s3)c2)cn1 [Example 108, 3-[(6-Methylpyridin-3-yl)oxy]-5-(5-methyl-1,3-thiazol-2-yl)-N-{(1R)-1-[2-(trifluoromethyl)pyrimidin-5-yl]ethyl}benzamide] |  | 
5 | 2410 | 235 | Cc1cnc([C@@H](C)NC(=O)c2cc(Oc3nnc(C)s3)cc(-c3ncc(C)s3)c2)cn1 [Example 109, N-[(1R)-1-(5-Methylpyrazin-2-yl)ethyl]-3-[(5-methyl-1,3,4-thiadiazol-2-yl)oxy]-5-(5-methyl-1,3-thiazol-2-yl)benzamide] |  | 
6 | 1450 | 114 | Cc1ccc([C@@H](C)NC(=O)c2cc(Oc3nnc(C)s3)cc(-c3ncc(C)s3)c2)nn1 [Example 110, N-[(1R)-1-(6-Methylpyridazin-3-yl)ethyl]-3-[(5-methyl-1,3,4-thiadiazol-2-yl)oxy]-5-(5-methyl-1,3-thiazol-2-yl)benzamide] |  | 
7 | 380 | 16 | Cc1cnc(-c2cc(Oc3nnc(C)s3)cc(C(=O)N[C@H](C)c3cnc(C(F)(F)F)nc3)c2)s1 [Example 111, 3-[(5-Methyl-1,3,4-thiadiazol-2-yl)oxy]-5-(5-methyl-1,3-thiazol-2-yl)-N-[(1R)-1-[2-(trifluoromethyl)pyrimidin-5-yl]ethyl]benzamide] |  | 
8 | 387 | 43 | Cc1ccc([C@@H](C)NC(=O)c2cc(Oc3nccs3)cc(-c3ncc(C)s3)c2)nn1 [Example 113, N-[(1R)-1-(6-Methylpyridazin-3-yl)ethyl]-3-(5-methyl-1,3-thiazol-2-yl)-5-(1,3-thiazol-2-yloxy)benzamide] |  | 
9 | 414 | 38 | Cc1ccc([C@@H](C)NC(=O)c2cc(Oc3nccs3)cc(-c3ncc(C)s3)c2)cn1 [Example 114, N-[(1R)-1-(6-Methylpyridin-3-yl)ethyl]-3-(5-methyl-1,3-thiazol-2-yl)-5-(1,3-thiazol-2-yloxy)benzamide] |  | 
10 | 187 | 15 | COC(C)(C)COc1cc(C(=O)N[C@H](C)c2ccc(Cl)cn2)cc(-c2ncc(Cl)s2)c1 [Example 115, N-[(1R)-1-(5-Chloropyridin-2-yl)ethyl]-3-(5-chloro-1,3-thiazol-2-yl)-5-(2-methoxy-2-methylpropoxy)benzamide] |  | 
11 | 6430 | 210 | COC(C)(C)COc1cc(C(=O)N[C@H](C)c2cnc(C(F)(F)F)nc2)cc(-c2ncc(Cl)s2)c1 [Example 116, 3-(5-Chloro-1,3-thiazol-2-yl)-5-(2-methoxy-2-methylpropoxy)-N-{(1R)-1-[2-(trifluoromethyl)pyrimidin-5-yl]ethyl}benzamide] |  | 
12 | 883 | 36 | COC(C)(C)COc1cc(C(=O)N[C@H](C)c2cnc(C)cn2)cc(-c2ncc(Cl)s2)c1 [Example 117, 3-(5-Chloro-1,3-thiazol-2-yl)-5-(2-methoxy-2-methylpropoxy)-N-[(1R)-1-(5-methylpyrazin-2-yl)ethyl]benzamide] |  | 
13 | 1130 | 198 | Cc1ccc(CNC(=O)c2cc(OCC3CCOCC3)cc(-c3ncc(C(F)(F)F)s3)c2)nn1 [Example 118, N-[(6-Methylpyridazin-3-yl)methyl]-3-(tetrahydro-2H-pyran-4-ylmethoxy)-5-[5-(trifluoromethyl)-1,3-thiazol-2-yl]benzamide] |  | 
14 | 190 | 24 | Cc1ccc(CNC(=O)c2cc(OCC3CCOCC3)cc(-c3ncc(C4CCC4)s3)c2)nn1 [Example 119, 3-(5-Cyclobutyl-1,3-thiazol-2-yl)-N-[(6-methylpyridazin-3-yl)methyl]-5-(tetrahydro-2H-pyran-4-ylmethoxy)benzamide] |  | 
15 | 104 | 14 | C[C@@H](NC(=O)c1cc(OCC2CCOCC2)cc(-c2ncc(C3CCC3)s2)c1)c1cnc(C(F)(F)F)nc1 [Example 120, 3-(5-Cyclobutyl-1,3-thiazol-2-yl)-5-(tetrahydro-2H-pyran-4-ylmethoxy)-N-{(1R)-1-[2-(trifluoromethyl)pyrimidin-5-yl]ethyl}benzamide] |  | 
16 | 1170 | 106 | Cc1ccc(CNC(=O)c2cc(OC[C@H]3CCOC3)cc(-c3ncc(C4CCC4)s3)c2)nn1 [Example 122, 3-(5-Cyclobutyl-1,3-thiazol-2-yl)-N-[(6-methylpyridazin-3-yl)methyl]-5-[(3S)-tetrahydrofuran-3-ylmethoxy]benzamide] |  | 
17 | 164 | 46 | C[C@@H](NC(=O)c1cc(OC[C@H]2CCOC2)cc(-c2ncc(C3CCC3)s2)c1)c1cnc(C(F)(F)F)nc1 [Example 123, 3-(5-Cyclobutyl-1,3-thiazol-2-yl)-5-[(3S)-tetrahydrofuran-3-ylmethoxy]-N-{(1R)-1-[2-(trifluoromethyl)pyrimidin-5-yl]ethyl}benzamide] |  | 
18 | 165 | 27 | Cc1ncc([C@@H](C)NC(=O)c2cc(OCC3CCOCC3)cc(-c3ncc(C4CCC4)s3)c2)cn1 [Example 124, 3-(5-Cyclobutyl-1,3-thiazol-2-yl)-N-[(1R)-1-(2-methylpyrimidin-5-yl)ethyl]-5-(tetrahydro-2H-pyran-4-ylmethoxy)benzamide] |  | 
19 | 27 | 3 | CCc1cnc(-c2cc(OCC3CCOCC3)cc(C(=O)N[C@H](C)c3cnc(C)nc3)c2)s1 [Example 125, 3-(5-Ethyl-1,3-thiazol-2-yl)-N-[(1R)-1-(2-methylpyrimidin-5-yl)ethyl]-5-(tetrahydro-2H-pyran-4-ylmethoxy)benzamide] |  | 
20 | 532 | 34 | Cc1ncc([C@@H](C)NC(=O)c2cc(OCC3CCOCC3)cc(-c3ncc(C(C)C)s3)c2)cn1 [Example 126, N-[(1R)-1-(2-Methylpyrimidin-5-yl)ethyl]-3-[5-(propan-2-yl)-1,3-thiazol-2-yl]-5-(tetrahydro-2H-pyran-4-ylmethoxy)benzamide] |  | 
21 | 91 | 10 | CCc1cnc(-c2cc(OC3CCOCC3)cc(C(=O)N[C@H](C)c3ccc(C)nn3)c2)s1 [Example 128, 3-(5-Ethyl-1,3-thiazol-2-yl)-N-[(1R)-1-(6-methylpyridazin-3-yl)ethyl]-5-(tetrahydro-2H-pyran-4-yloxy)benzamide] |  | 
22 | 33 | 3 | CCc1cnc(-c2cc(OC3CCOCC3)cc(C(=O)N[C@H](C)c3cnc(C(F)(F)F)nc3)c2)s1 [Example 129, 3-(5-Ethyl-1,3-thiazol-2-yl)-5-(tetrahydro-2H-pyran-4-yloxy)-N-{(1R)-1-[2-(trifluoromethyl)pyrimidin-5-yl]ethyl}benzamide] |  | 
23 |  |  | Cc1ncc([C@@H](C)NC(=O)c2cc(O[C@H]3CCOC3)cc(-c3ncc(C)s3)c2)cn1 [Example 130, N-[(1R)-1-(2-Methylpyrimidin-5-yl)ethyl]-3-(5-methyl-1,3-thiazol-2-yl)-5-[(3S)-tetrahydrofuran-3-yloxy]benzamide] | 74 | 1350
24 | 730 | 134 | Cc1ccc(Oc2cc(C(=O)N[C@H](C)c3cnc(C)cn3)cc(-c3ncc(C)s3)c2)cn1 [Example 131, N-[(1R)-1-(5-methylpyrazin-2-yl)ethyl]-3-[(6-methylpyridin-3-yl)oxy]-5-(5-methyl-1,3-thiazol-2-yl)benzamide] |  | 
25 | 2050 | 75 | Cc1cnc(-c2cc(O[C@H]3CCOC3)cc(C(=O)NC(C)c3ncc(F)cc3Cl)c2)s1 (stereo partly drawn) [Example 132, N-[1-(3-Chloro-5-fluoropyridin-2-yl)ethyl]-3-(5-methyl-1,3-thiazol-2-yl)-5-[(3S)-tetrahydrofuran-3-yloxy]benzamide] |  | 
26 | ≥ 10000 | 177 | Cc1ccc(CNC(=O)c2cc(O[C@H]3CCOC3)cc(-c3ncc(C)s3)c2)nn1 [Example 133, N-[(6-Methylpyridazin-3-yl)methyl]-3-(5-methyl-1,3-thiazol-2-yl)-5-[(3S)-tetrahydrofuran-3-yloxy]benzamide] |  | 
27 | 210 | 15 | Cc1cnc(-c2cc(O[C@H]3CCOC3)cc(C(=O)NC(C)c3ncc(Cl)cc3F)c2)s1 (stereo partly drawn) [Example 134, N-[1-(5-Chloro-3-fluoropyridin-2-yl)ethyl]-3-(5-methyl-1,3-thiazol-2-yl)-5-[(3S)-tetrahydrofuran-3-yloxy]benzamide] |  | 
28 | 209 | 35 | Cc1ccc([C@@H](C)NC(=O)c2cc(OC[C@H]3CCOC3)cc(-c3ncc(C4CCC4)s3)c2)nn1 [Example 135, 3-(5-Cyclobutyl-1,3-thiazol-2-yl)-N-[(1R)-1-(6-methylpyridazin-3-yl)ethyl]-5-[(3S)-tetrahydrofuran-3-ylmethoxy]benzamide] |  | 

Row | SMILES | IC50 (human P2X2/3 receptor; [1]) [nM] | IC50 (human P2X3 receptor; [2]) [nM] | IC50 (human P2X3 receptor) [nM] | IC50 (human P2X2/3 receptor; hP2X2/3 IC50 (nM)) [nM]
29 | Cc1cnc([C@@H](C)NC(=O)c2cc(Oc3nccs3)cc(-c3ncc(C)s3)c2)cn1 [Example 112, N-[(1R)-1-(5-Methylpyrazin-2-yl)ethyl]-3-(5-methyl-1,3-thiazol-2-yl)-5-(1,3-thiazol-2-yloxy)benzamide] | 772 |  | 61 | 
